# Patent publication US20250230193A1, “CYCLIC COMPOUND HAVING SELECTIVE KRAS INHIBITORY EFFECT ON HRAS AND NRAS” (CHUGAI SEIYAKU KABUSHIKI KAISHA, priority 2022, published 2025)
# What was measured:
# [1] = molecular target: GDP-bound HRAS wild-type protein (Homo sapiens, UniProt P01112); experiment: Binding to HRAS by surface plasmon resonance (SPR), Single Cycle Kinetics; settings: KD ratio, GDP-bound HRAS wild-type vs GDP-bound KRAS wild-type, SPR
# [2] = molecular target: GDP-bound NRAS wild-type protein (Homo sapiens, UniProt P01111); experiment: Binding to NRAS by surface plasmon resonance (SPR), Single Cycle Kinetics; settings: KD ratio, GDP-bound NRAS wild-type vs GDP-bound KRAS wild-type, SPR
# Sequence of GDP-bound NRAS wild-type protein (P01111 whole entry): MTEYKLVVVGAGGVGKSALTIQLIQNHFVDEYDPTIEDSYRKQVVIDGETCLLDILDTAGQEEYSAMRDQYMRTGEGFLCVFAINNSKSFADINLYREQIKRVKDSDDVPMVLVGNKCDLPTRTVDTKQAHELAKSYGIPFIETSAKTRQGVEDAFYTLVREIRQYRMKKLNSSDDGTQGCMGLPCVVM
# Sequence of GDP-bound HRAS wild-type protein (P01112 whole entry): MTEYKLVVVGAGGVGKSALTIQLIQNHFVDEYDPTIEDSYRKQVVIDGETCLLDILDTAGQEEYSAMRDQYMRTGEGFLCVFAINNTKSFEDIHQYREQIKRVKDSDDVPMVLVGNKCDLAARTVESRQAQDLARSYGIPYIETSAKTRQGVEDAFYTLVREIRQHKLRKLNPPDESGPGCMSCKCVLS
SMILES,HRAS/KRAS (ratio of KD value with respect to HRAS to KD value with respect to KRAS) [1],NRAS/KRAS (ratio of KD value with respect to NRAS to KD value with respect to KRAS) [2]
CC[C@H](C)[C@@H]1NC(=O)[C@H](CC)N(C)C(=O)C[C@@H](C(=O)N(C)C)N(C)C(=O)[C@H](C2CCCC2)N(C)C(=O)C2(CCC2)NC(=O)[C@@H]2COCCN2C(=O)[C@H](CCc2cc(F)c(C(F)(F)F)c(F)c2)NC(=O)CN(C)C(=O)[C@H](Cc2ccc(C(F)(F)F)cc2)N2CC/C=C\C[C@@H](C2=O)N(C)C(=O)CN(C)C1=O [PP1138],A (a compound having 10 or more and less than 20 is denoted as A),A (a compound having 10 or more and less than 20 is denoted as A)
CC[C@H](C)[C@@H]1NC(=O)[C@H](CC)N(C)C(=O)C[C@@H](C(=O)N(C)C)N(C)C(=O)[C@H](C2CCCC2)N(C)C(=O)C2(CCC2)NC(=O)[C@@H]2CCN2C(=O)[C@H](CCc2cc(F)c(C(F)(F)F)c(F)c2)NC(=O)CN(C)C(=O)[C@H](Cc2ccc(C(F)(F)F)cc2)N2CC/C=C\C[C@@H](C2=O)N(C)C(=O)CN(C)C1=O [PP1139],A (a compound having 10 or more and less than 20 is denoted as A),A (a compound having 10 or more and less than 20 is denoted as A)
CC[C@H](C)[C@@H]1NC(=O)[C@H](CC)N(C)C(=O)C[C@@H](C(=O)N(C)C)N(C)C(=O)[C@H](C2CCCC2)N(C)C(=O)C2(CCC2)NC(=O)[C@H](C)NC(=O)[C@H](CCc2cc(F)c(C(F)(F)F)c(F)c2)NC(=O)CN(C)C(=O)[C@H](Cc2ccc(C(F)(F)F)cc2)N2CC/C=C\C[C@@H](C2=O)N(C)C(=O)CN(C)C1=O [PP1140],A (a compound having 10 or more and less than 20 is denoted as A),A (a compound having 10 or more and less than 20 is denoted as A)
CCCN1CC(=O)NC2(CCC2)C(=O)N(C)[C@@H](C2CCCC2)C(=O)N(C)[C@H](C(=O)N(C)C)CC(=O)N(C)[C@@H](CC)C(=O)N[C@@H]([C@@H](C)CC)C(=O)N(C)CC(=O)N(C)[C@H]2C/C=C\CCN(C2=O)[C@@H](Cc2ccc(C(F)(F)F)cc2)C(=O)N(C)CC(=O)N[C@@H](CCc2cc(F)c(C(F)(F)F)c(F)c2)C1=O [PP1141],A (a compound having 10 or more and less than 20 is denoted as A),AA (a compound having 20 or more is denoted as AA)
CCCCN1CC(=O)NC2(CCC2)C(=O)N(C)[C@@H](C2CCCC2)C(=O)N(C)[C@H](C(=O)N(C)C)CC(=O)N(C)[C@@H](CC)C(=O)N[C@@H]([C@@H](C)CC)C(=O)N(C)CC(=O)N(C)[C@H]2C/C=C\CCN(C2=O)[C@@H](Cc2ccc(C(F)(F)F)cc2)C(=O)N(C)CC(=O)N[C@@H](CCc2cc(F)c(C(F)(F)F)c(F)c2)C1=O [PP1142],A (a compound having 10 or more and less than 20 is denoted as A),A (a compound having 10 or more and less than 20 is denoted as A)
CC[C@H](C)[C@@H]1NC(=O)[C@H](CC)N(C)C(=O)C[C@@H](C(=O)N(C)C)N(C)C(=O)[C@H](C2CCCC2)N(C)C(=O)C2(CCC2)NC(=O)CN(CC)C(=O)[C@H](CCc2cc(F)c(C(F)(F)F)c(F)c2)NC(=O)CN(C)C(=O)[C@H](Cc2ccc(C(F)(F)F)cc2)N2CC/C=C\C[C@@H](C2=O)N(C)C(=O)CN(C)C1=O [PP1143],A (a compound having 10 or more and less than 20 is denoted as A),A (a compound having 10 or more and less than 20 is denoted as A)
CC[C@H](C)[C@@H]1NC(=O)[C@H](CC)N(C)C(=O)C[C@@H](C(=O)N(C)C)N(C)C(=O)[C@H](C2CCCC2)N(C)C(=O)C2(CCC2)NC(=O)[C@H](COC)N(C)C(=O)[C@H](CCc2cc(F)c(C(F)(F)F)c(F)c2)NC(=O)CN(C)C(=O)[C@H](Cc2ccc(C(F)(F)F)cc2)N2CC/C=C\C[C@@H](C2=O)N(C)C(=O)CN(C)C1=O [PP1145],B (a compound having 3 or more and less than 10 is denoted as B),A (a compound having 10 or more and less than 20 is denoted as A)
CC[C@H](C)[C@@H]1NC(=O)[C@H](CC)N(C)C(=O)C[C@@H](C(=O)N(C)C)N(C)C(=O)[C@H](C2CCCC2)N(C)C(=O)C2(CCC2)NC(=O)[C@H](C)N(C)C(=O)[C@H](CCc2cc(F)c(C(F)(F)F)c(F)c2)NC(=O)CN(C)C(=O)[C@H](Cc2ccc(C(F)(F)F)cc2)N2CC/C=C\C[C@@H](C2=O)N(C)C(=O)CN(C)C1=O [PP1146],B (a compound having 3 or more and less than 10 is denoted as B),A (a compound having 10 or more and less than 20 is denoted as A)
CC[C@H](C)[C@@H]1NC(=O)[C@H](CC)N(C)C(=O)C[C@@H](C(=O)N(C)C)N(C)C(=O)[C@H](C2CCCC2)N(C)C(=O)C2(CCC2)NC(=O)[C@H](COCCC(C)C)N(C)C(=O)[C@H](CCc2cc(F)c(C(F)(F)F)c(F)c2)NC(=O)CN(C)C(=O)[C@H](Cc2ccc(C(F)(F)F)cc2)N2CC/C=C\C[C@@H](C2=O)N(C)C(=O)CN(C)C1=O [PP1148],A (a compound having 10 or more and less than 20 is denoted as A),A (a compound having 10 or more and less than 20 is denoted as A)
CC[C@H](C)[C@@H]1NC(=O)[C@H](CC)N(C)C(=O)C[C@@H](C(=O)N(C)C)N(C)C(=O)[C@H](C2CCCC2)N(C)C(=O)C2(CCC2)NC(=O)[C@H](CC2CCCCC2)N(C)C(=O)[C@H](CCc2cc(F)c(C(F)(F)F)c(F)c2)NC(=O)CN(C)C(=O)[C@H](Cc2ccc(C(F)(F)F)cc2)N2CC/C=C\C[C@@H](C2=O)N(C)C(=O)CN(C)C1=O [PP1149],A (a compound having 10 or more and less than 20 is denoted as A),A (a compound having 10 or more and less than 20 is denoted as A)
CCCC[C@H]1C(=O)NC2(CCC2)C(=O)N(C)[C@@H](C2CCCC2)C(=O)N(C)[C@H](C(=O)N(C)C)CC(=O)N(C)[C@@H](CC)C(=O)N[C@@H]([C@@H](C)CC)C(=O)N(C)CC(=O)N(C)[C@H]2C/C=C\CCN(C2=O)[C@@H](Cc2ccc(C(F)(F)F)cc2)C(=O)N(C)CC(=O)N[C@@H](CCc2cc(F)c(C(F)(F)F)c(F)c2)C(=O)N1C [PP1150],A (a compound having 10 or more and less than 20 is denoted as A),AA (a compound having 20 or more is denoted as AA)
CC[C@H](C)[C@@H]1NC(=O)[C@H](CC(C)C)N(C)C(=O)C[C@@H](C(=O)N2C[C@@H](C)O[C@@H](C)C2)N(C)C(=O)[C@H](C2CCCC2)N(C)C(=O)C2(CCCC2)NC(=O)[C@@H]2CCCN2C(=O)[C@H](CCc2ccc(C(F)(F)F)c(Cl)c2)NC(=O)CN(C)C(=O)[C@H](Cc2ccc(F)cc2)N2CCCCC[C@@H](C2=O)N(C)C(=O)CN(C)C1=O [PP1151],B (a compound having 3 or more and less than 10 is denoted as B),B (a compound having 3 or more and less than 10 is denoted as B)
CCO[C@@H]1C[C@H]2C(=O)NC3(CCC3)C(=O)N(C)[C@@H](C3CCCC3)C(=O)N(C)[C@H](C(=O)N3C[C@@H](C)O[C@@H](C)C3)CC(=O)N(C)[C@@H](CC(C)C)C(=O)N[C@@H]([C@@H](C)CC)C(=O)N(C)CC(=O)N(C)[C@H]3CCCCCN(C3=O)[C@@H](Cc3ccc(F)cc3)C(=O)N(C)CC(=O)N[C@@H](CCc3ccc(C(F)(F)F)c(Cl)c3)C(=O)N2C1 [PP1153],B (a compound having 3 or more and less than 10 is denoted as B),B (a compound having 3 or more and less than 10 is denoted as B)
CCO[C@@H]1C[C@H]2C(=O)NC3(CCC3)C(=O)N(C)[C@@H](C3CCCC3)C(=O)N(C)[C@H](C(=O)N(C)C)CC(=O)N(C)[C@@H](Cc3ccccc3C#N)C(=O)N[C@@H]([C@@H](C)CC)C(=O)N(C)CC(=O)N(C)[C@H]3CCCCCN(C3=O)[C@@H](Cc3ccc(F)cc3)C(=O)N(C)CC(=O)N[C@@H](CCc3cc(F)c(C(F)(F)F)c(F)c3)C(=O)N2C1 [PP1155],B (a compound having 3 or more and less than 10 is denoted as B),B (a compound having 3 or more and less than 10 is denoted as B)
CCO[C@@H]1C[C@H]2C(=O)NC3(CCC3)C(=O)N(C)[C@@H](C3CCCC3)C(=O)N(C)[C@H](C(=O)N(C)C)CC(=O)N(C)[C@@H](Cc3cccc(C#N)c3)C(=O)N[C@@H]([C@@H](C)CC)C(=O)N(C)CC(=O)N(C)[C@H]3CCCCCN(C3=O)[C@@H](Cc3ccc(F)cc3)C(=O)N(C)CC(=O)N[C@@H](CCc3cc(F)c(C(F)(F)F)c(F)c3)C(=O)N2C1 [PP1156],B (a compound having 3 or more and less than 10 is denoted as B),B (a compound having 3 or more and less than 10 is denoted as B)
CCO[C@@H]1C[C@H]2C(=O)NC3(CCC3)C(=O)N(C)[C@@H](C3CCCC3)C(=O)N(C)[C@H](C(=O)N(C)C)CC(=O)N(C)[C@@H](Cc3ccc(C#N)cc3)C(=O)N[C@@H]([C@@H](C)CC)C(=O)N(C)CC(=O)N(C)[C@H]3CCCCCN(C3=O)[C@@H](Cc3ccc(F)cc3)C(=O)N(C)CC(=O)N[C@@H](CCc3cc(F)c(C(F)(F)F)c(F)c3)C(=O)N2C1 [PP1157],B (a compound having 3 or more and less than 10 is denoted as B),B (a compound having 3 or more and less than 10 is denoted as B)
